Test results from PMC6792352, “Limited Chemical Structural Diversity Found to Modulate Thyroid Hormone Receptor in the Tox21 Chemical Library” (Environmental Health Perspectives, 2019).
Where a name gives a salt, the structure may show the parent alone. Read-outs that look alike come from different tables or passages of the source. Each block holds one compound with its values, some of them ahead of it.

How the values were obtained:
[1] = system: thyroid hormone receptor (endogenous TRα and TRβ); assay: GH3-TRE-Ag primary qHTS, luciferase reporter, agonist mode (TOX21_TR_LUC_GH3_Agonist, aeid 803); format: cell-based, rat; settings: for GH3-TRE-Ag AC50 hitc: hit call from tcpl
[2] = system: Tox21 cell viability assays (different cell types); assay: Global cytotoxicity: eighteen Tox21 cell viability assays; format: cell-based
[3] = as above; format: cell-based
in vitro [4] = settings: rat
in vitro [5] = settings: rat, gh3-tre-luc cells, AC50 (uM) modified / 1000
GH3-TRE-Luc cell line [6] = system: GH3-TRE-Luc cell line
[7] = target: thyroid hormone receptor (endogenous TRα and TRβ); assay: GH3-TRE-Antag primary qHTS, luciferase reporter, antagonist mode with 1 nM T3 (TOX21_TR_LUC_GH3_Antagonist, aeid 804); format: cell-based, rat
GH3-TRE-Luc cell line [8] = assay: GH3-TRE-Via cell viability, CellTiter-Fluor (TOX21_TR_LUC_GH3_Antagonist_viability, aeid 805)
[9] = system: thyroid hormone receptor (TR); assay: Classification of TR actives across characterization assays (TR-Ag / RXR-Ag; TR model binary); settings: for Categorization Code: TR agonist characterization; for Classification: TR-Ag = TR agonist, RXR-Ag = RXR agonist
Method in brief: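 GH3-TRE qHTS agonist, antagonist and viability modes over 8,305 compounds; 84 candidates rescreened in GH3-TRE-Ag, TRβ- and RXRα-UAS-bla HEK 293T one-hybrid assays, HEK293T viability, and TRα/TRβ coactivator recruitment. Actives classified binary after removing pharmaceuticals.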

[10] = system: thyroid hormone receptor (endogenous TRα and TRβ); assay: GH3-TRE-Ag-Followup confirmation (TOX21_TR_LUC_GH3_Agonist_Followup, aeid 2226); format: cell-based, rat; settings: for AC50: confirmation, agonist mode, read-out: GH3-TRE-Ag-Followup AC50; for GH3-TRE-Ag-Followup hitc: hit call from tcpl
[11] = target: T1, human TRβ ligand-binding domain (Homo sapiens, UniProt P10828); assay: TRb-coa LanthaScreen TR-FRET coactivator (SRC-2 peptide) recruitment, agonist (TOX21_TRB_COA_Agonist_Followup_ratio, aeid 2244); format: biochemical; set-up: host or cells: GeneBLAzer UAS-bla HEK 293T; settings: read-out: EMax (% of Control) trb-coa-agonist-followup-1
T1 sequence (P10828 217-461 limits assumed): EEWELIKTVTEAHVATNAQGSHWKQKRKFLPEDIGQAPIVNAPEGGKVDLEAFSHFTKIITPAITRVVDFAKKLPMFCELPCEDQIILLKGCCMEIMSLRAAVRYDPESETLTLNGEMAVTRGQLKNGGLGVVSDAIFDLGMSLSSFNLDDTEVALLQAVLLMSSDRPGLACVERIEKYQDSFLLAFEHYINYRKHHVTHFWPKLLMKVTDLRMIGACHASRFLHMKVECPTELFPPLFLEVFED

[12] = target: T2, TRα ligand-binding domain (Homo sapiens, UniProt P10827); assay: TRa-coa LanthaScreen TR-FRET coactivator (SRC-2 peptide) recruitment, agonist (TOX21_TRA_COA_Agonist_Followup_ratio, aeid 2230); format: biochemical
T2 construct: the receptor LBDs expressed as glutathione S-transferase (GST) fusion proteins; purchased

human RXRα = target: T3, human RXRα (Homo sapiens, UniProt P19793); assay: RXRa-bla-Ag mammalian one-hybrid beta-lactamase assay (TOX21_TR_RXR_BLA_Agonist_Followup_ratio, aeid 2253); format: cell-based
T3 construct: host or cells: GeneBLAzer UAS-bla HEK 293T
T3 sequence (P19793 227-458 limits assumed): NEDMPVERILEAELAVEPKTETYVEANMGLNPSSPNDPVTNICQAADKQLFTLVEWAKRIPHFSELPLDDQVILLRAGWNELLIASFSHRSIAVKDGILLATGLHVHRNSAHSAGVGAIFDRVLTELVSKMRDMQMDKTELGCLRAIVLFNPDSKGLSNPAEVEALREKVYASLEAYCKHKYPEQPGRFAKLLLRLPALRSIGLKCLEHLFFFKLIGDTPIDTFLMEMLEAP

[13] = target: T1, human TRβ ligand-binding domain; assay: TRb-bla agonist mammalian one-hybrid beta-lactamase assay (TOX21_TRB_BLA_Agonist_Followup_ratio, aeid 2236); format: cell-based; set-up: host or cells: GeneBLAzer UAS-bla HEK 293T; settings: read-out: EMax (% of Control) trb-bla-agonist-followup-1
[14] = antagonist candidates, inactive samples arbitrarily set to AC50=1,000 μM, read-out: GH3-TRE-Ag AC50
[15] = antagonist mode, 1 nM T3, read-out: GH3-TRE-Antag AC50

T2 sequence (P10827 163-410 isoform P10827-2 limits assumed, other chains not shown): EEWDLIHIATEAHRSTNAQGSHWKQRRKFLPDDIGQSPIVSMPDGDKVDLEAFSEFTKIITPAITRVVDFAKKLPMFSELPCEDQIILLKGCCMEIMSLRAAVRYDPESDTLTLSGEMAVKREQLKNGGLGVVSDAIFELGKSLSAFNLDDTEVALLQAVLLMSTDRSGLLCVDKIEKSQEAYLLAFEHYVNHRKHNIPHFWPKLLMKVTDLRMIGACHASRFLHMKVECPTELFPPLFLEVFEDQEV

SMILES: CCC(=C(CC)c1ccc(O)cc1)c1ccc(O)cc1 [(Z,E)-Diethylstilbestrol, reference compound]
AC50 [1, 14]: > 92 µM | AC50 (GH3-TRE-Luc cell line [6]): 12.2 µM | AC50 [7, 15]: 17.1 µM

SMILES: N[C@@H](Cc1cc(I)c(Oc2ccc(O)c(I)c2)c(I)c1)C(=O)O [3,5,3ʹ-Triiodothyronine, reference compound]
EMax (% of Control) gh3-tre-agonist [1]: […] | TR_LUC_GH3_Agonist_EMAX (% Control) ([1]; Table S5): […] | AC50 ([1]; Table S5, chemical level, listed as 3,5,3'-Triiodothyronine, read-out: TR_LUC_GH3_Agonist_AC50): […] | GH3-TRE-Ag AC50 hitc [1]: […] | TR_LUC_GH3_Antagonist_viability hitc (GH3-TRE-Luc cell line [6]; rat, 24 h): […] | GLOBAL CYTOTOXICITY cytotox.median [2]: >92 | GLOBAL CYTOTOXICITY cytotox.number_Active [2]: 0 | AC50 [3]: > 92 µM | AC50 at 24 h (in vitro [4]): 41.7 µM | Categorization Code [9]: TR-Ag | Classification [9]: TR-Ag | EMax (% of Control) gh3-tre-agonist-followup-1_agonist [10]: […] | AC50 [10]: […] | GH3-TRE-Ag-Followup hitc [10]: […]

SMILES: COc1cc(C)c(/C=C/C(C)=C/C=C/C(C)=C/C(=O)O)c(C)c1C [Acitretin, reference compound]
EMax (% of Control) gh3-tre-agonist [1]: 24.4 % of Control | GH3-TRE-Ag AC50 hitc [1]: 1 | Emax [11]: 4.8% | GLOBAL CYTOTOXICITY cytotox.median [2]: >92 | GLOBAL CYTOTOXICITY cytotox.number_Active [2]: 0 | AC50 ([3]; median over 18 Tox21 cell viability assays (Judson et al. 2016, invitrodb_v2), read-out: Global cytotoxicity AC50 median): > 92 µM | AC50 ([12]; cell-free coactivator recruitment, read-out: TRa-coa-Ag AC50): > 92 µM | TRa-coa hitc ([12]; hit call from tcpl, agonist): 0 | Emax ([12]; read-out: EMax (% of Control) tra-coa-agonist-followup-1): 3.4% | AC50 (human RXRα; HEK 293T one-hybrid, agonist mode, inactive set to 1,000, read-out: RXRa-bla-Ag AC50): 564 nM | tr-followup-rxr-bla-agonist-1 hitc (human RXRα; hit call from tcpl): 1 | Emax (human RXRα; read-out: EMax (% of Control) tr-followup-rxr-bla-agonist-1): 105% | AC50 at 24 h (in vitro [4]): > 92 µM | TR_LUC_GH3_Antagonist_viability hitc (GH3-TRE-Luc cell line [8]; hit call from tcpl): 0 | Categorization Code [9]: RXR-Ag | Classification [9]: RXR-Ag | EMax (% of Control) gh3-tre-agonist-followup-1_agonist [10]: 79.4 % of Control | AC50 [10]: 940 nM | GH3-TRE-Ag-Followup hitc [10]: 1 | Emax [13]: 4.1%

SMILES: O=C1NCN(c2ccccc2)C12CCN(CCCOc1ccc(F)cc1)CC2 [AMI-193, reference compound]
AC50 [1, 14]: > 92 µM | AC50 (GH3-TRE-Luc cell line [8]; read-out: GH3-TRE-Via AC50, inactive samples arbitrarily set to AC50=1,000 μM): 14.1 µM | AC50 [7, 15]: 15.8 µM

SMILES: CNCC[C@H](Oc1cccc2ccccc12)c1cccs1 [Duloxetine hydrochloride, reference compound]
AC50 ([1]; read-out: GH3-TRE-Ag AC50): > 92 µM | AC50 at 24 h (in vitro [4]): 5.69 µM | AC50 ([7]; read-out: GH3-TRE-Antag AC50, antagonist mode, 1 nM T3): 6.22 µM

Now from value to compound, other results behind:

AC50 at 24 h (in vitro [4]): 24.4 µM
SMILES: CC[C@H]1OC(=O)C[C@@H](O)[C@H](C)[C@@H](O[C@@H]2O[C@H](C)C[C@H](N(C)C)[C@H]2O)[C@@H](CC=O)C[C@@H](C)C(=O)/C=C/[C@]2(C)O[C@H]2[C@@H]1C [Rosaramicin]
AC50 [1, 14]: > 92 µM | Active in global cytotoxicity assays (%) [2]: 46.7% | AC50 [3]: 26.8 µM | CC50 at 24 h (in vitro [5]): 22.9 µM

AC50 (GH3-TRE-Luc cell line [6]): 9.06 µM
SMILES: COC(=O)C1=C(C)NC(C)=C(C(=O)OCCN2CCN(C(c3ccccc3)c3ccccc3)CC2)C1c1cccc([N+](=O)[O-])c1 (centres unmarked) [Manidipine dihydrochloride]
AC50 [1, 14]: > 92 µM | AC50 [2]: 18.6 µM | Active in global cytotoxicity assays (%) [2]: 28.8% | AC50 [7, 15]: 7.4 µM | CC50 at 24 h (in vitro [5]): 9.06 µM

AC50 (GH3-TRE-Luc cell line [6]): > 50 µM | hitc (GH3-TRE-Luc cell line [6]): 0 | hitc_modified (GH3-TRE-Luc cell line [6]): 0
SMILES: O=C(CO)[C@@H](O)[C@H](O)[C@@H](O)C(=O)O [Calcium 5-ketogluconate]
modl_tp (top asymptote for the winning model) ([1]; Table S2, aeid 803): 2.81 percent_activity | resp_max (maximum response value) ([1]; Table S2, aeid 803, per sample): 2.734 percent_activity | hitc ([1]; Table S2, aeid 803, tcpl hit call): 0 | hitc_modified ([1]; Table S2, aeid 803, final hitc after manual review): 0 | AC50 ([1]; Table S2, aeid 803, inactive set to 1000, read-out: AC50 (uM) modified): > 50 µM | resp_max (maximum response value) (GH3-TRE-Luc cell line [8]; Table S2, aeid 805): 18.832 percent_activity | hitc ([7]; Table S2, aeid 804): 0 | hitc_modified ([7]; Table S2, aeid 804): 0 | resp_max (maximum response value) ([7]; Table S2, aeid 804): 6.735 percent_activity | AC50 ([7]; Table S2, aeid 804, inactive set to 1000, read-out: AC50 (uM) modified): > 50 µM | CC50 at 24 h (in vitro [5]): > 50 µM
